Reference: US20060166934A1, “Composition comprising phytosphingosine derivatives for apoptosis induction” (Tae-Yoon Kim, priority 2002, published 2006)
Blank lines part the entries; values can stand above or below the compound they belong to.

Columns and labels:
[1] = tested on: HaCaT cells human keratinocyte cell line; experiment: MTT assay, combined administration with Vit D3 or calcipotriol; assay type: cell-based; conditions: 24 hours; for Cell viability: HaCaT, in %
Experimental: In order to study the synergistic effect in the cytotoxicity when the compositions of the present invention are administered in combination with Vit D3 or calcipotriol, the cell viability is analyzed by MTT assay method in HaCaT cells human keratinocyte cell line.
To HaCaT cells, 1 μM of Vit D3 or calcipotriol, or 10 μM each of NAPS and TAPS, is administered singly or in combination with each other, and they are cultured for 24 hours. And the effects of these drugs on the cytotoxicity according to the single or combined administration are observed by MTT assay. C2-ceramide is used for comparison.

[2] = tested on: human keratinocyte cell line HaCaT cells; experiment: MTT assay, cytotoxicity in human keratinocyte cell line; assay type: cell-based
Experimental: (§1) Firstly, the cytotoxicity is measured by the MTT assay. Phytosphingosine (PS), phytosphingosine-HCl (PS-HCl), C6-phytosphingosine (C6-PS), CLA-phytosphingosine (CLA-PS), tetraacetyl phytosphingosine (TAPS), and N-acetyl phytosphingosine (NAPS) are dissolved into DMSO to have the final concentration of 1-100 μM.
(§2) In order to study the effects of the compositions of the present invention on the cytotoxicity in the human keratinocyte cell line HaCaT cells, the cell viability is analyzed by the MTT (3-[4,5-dimethylthiazol-2-yl]-2,5-diphenyltetrazolium bromide) assay. HaCaT cells are supplied by Professor N. Fuseng of German Cancer Research in Germany. HaCaT cells are seeded in a density of 1×10^6 cells in a […] and cultured in DMEM (Dulbecco's Modified Eagle Medium) containing 10% fetal bovine serum (FBS, GIBCO), 100 units/ml penicillin, and 100 μg/ml streptomycin for 48 hours. They are treated with trypsin and 1-2×10^4 cells per well are seeded again in a 96-well plate by using a serum-free culture medium, about 3 hours after which they are cultured by treatment with phytosphingosine derivatives. After they are cultured for 24 hours, the MTT reagent is added at a concentration of 2 mg/ml, cultured for 4 hours, suspended in DMSO after removing the culture medium completely in order to measure O.D. at 540 nm. C2-ceramide is used for comparison.

[3] = tested on: A431 cells, human skin cancer cell line; experiment: MTT assay, cytotoxicity in human skin cancer cell line; assay type: cell-based
Experimental: as §1, §2
In order to study the effects of the compositions of the present invention on the cytotoxicity in A431 cells, human skin cancer cell line, the MTT assay is used. The method of cell culture and MTT assay are the same as those in the above method. C2-ceramide is used for comparison.

[4] = tested on: peripheral blood mononuclear cells (PBMC); experiment: MTT assay, cytotoxicity in peripheral blood mononuclear cells; assay type: cell-based, human; conditions: up to 100 μM, 24 hours, FIG. 3
Experimental: (§3) The effects of the composition of the present invention on the cytotoxicity in immune cells (T cells, B cells, macrophages, monocytes, etc.) obtained from human blood were examined. The blood was obtained from healthy volunteers and PBMC from the blood by mechanical aggregation method. And mononuclear cells containing T cells, B cells, macrophages and monocytes were isolated from single cells by density gradient centrifugation method using Ficoll Hypaque. Briefly, single cells were treated with PBS and overlayed on Ficoll Hypaque and centrifuged at 1500 rpm for 30 min. After centrifugation, the cells around the boundary of the Ficoll-Hapaque were collected and washed three times with PBS. Each 2×10^5 PBMC obtained from different volunteers was mixed with each other and cultured for 5 days on the 96-well plate. And RPMI with 10% of serum was used as a medium. The isolated cells were cultured for 24 hours in the presence of 1, 10, 50 and 100 μM of NAPS, TAPS, and PS to examine the effect of cytotoxicity, i.e. the degree of proliferation of the cells. C2-ceramide was used as control.

Th1 cells activation = experiment: Mixed leukocyte reaction (MLR), Th1 cells activation by TNBSO3, MTT assay; assay type: cell-based, mice; conditions: MLR with TNBSO3-conjugated stimulator cells, FIG. 4
Experimental: Whether the composition of the present invention has a suppressive effect on the Th1 cells activation which isolate […], IL-12, etc. by reacting with TNBSO3 […] was examined.
The mononuclear cells obtained from spleen of mice as described the above 4 were used for responder cells, and TNBSO3-conjugated cells were used for stimulator cells. The stimulator cells were obtained as follows:
The mononuclear cells were adjusted to be 2×10^7 cells/ml in PBS and the same volume of 20 mM TNBSO3 was added and incubated at 37° C. for 10 min in the dark state. After incubation, the cells wrer washed three times with PBS.
(§4) Each 2×10^5 responder cells and stimulator cells were mixed with each other and cultured for 5 days on the 96-well plate. And RPMI with 10% of serum was used as a medium.
(§5) The above cells were cultured for 24 hours in the presence of 1, 10, 50 and 100 μM of NAPS, TAPS, and PS to examine the proliferation of the cells.
(§6) C2-ceramide was used as control.

[5] = tested on: human umbilical vein endothelial cells (HUVEC); experiment: MTT assay, cytotoxicity in HUVEC; assay type: cell-based
Experimental: as §1, §2
The MTT assay is used for the above purpose. Primary human umbilical vein endothelial cells are cultured from the human umbilical vein. The method of cell culture and the MTT assay are the same as those in the above. C2-ceramide is used for comparison.

[6] = tested on: Th1 cells activation against allogenic cells (PBMC); experiment: Reactions among allogenic cells, Th1 cells activation, MTT assay; assay type: cell-based, human; conditions: 50 μM, FIG. 5
Text: Whether the composition of the present invention has a suppressive effect on the Th1 cells activation by allogenic cells in immune reation was examined.
PBMC obtained from different volunteers as described in the above 5 were used for responder cells and stimulator cells respectively. PBMC for stimulator cells were used after X-ray irradiation (3000 rad) to inhibit the proliferation of stimulator cells.
as §4, §5, §6

[7] = tested on: immune cells (T cells, B cells, macrophages, monocytes) from spleen of mice; experiment: MTT assay, cytotoxicity in immune cells separated from spleen of mice; assay type: cell-based
Experimental: as §3, with “effect” for “effects”, “etc.) was examined. The spleen was removed from normal mice (BDF) and single cells were” for “etc.)”, “from” for “from human blood were examined. The blood was obtained from healthy volunteers and PBMC from”, “spleen” for “blood”, “PBS.” for “PBS. Each 2×10^5 PBMC obtained from different volunteers was mixed with each other and cultured for 5 days on the 96-well plate. And RPMI with 10% of serum was used as a medium.”, “control. The medium used in this experiment was RPMI 1640 suplemented with 10% of FBS and 100 μg/ml of penicillin and streptomycin.” for “control.”

caspase-3 = experiment: Immunoblot analysis of active caspase-3; assay type: cell-based, human; conditions: HaCaT, FIG. 11
Experimental: In the confirmation of apoptosis-related proteins, the immunoblot analysis is performed in order to look into the effects of the compositions of the present invention on the expression of caspase-3, p53, and Chk1 proteins related to the induction of apoptosis.
HaCaT cells are cultured on a 100-mm dish and collected at the indicative time. The proteins are extracted by adding 500 μl of RIPA lysis buffer (1% Nonidet P-40, 1% sodium deoxycholate, 0.1% SDS, […], 0.01 M sodium phosphate, pH 7.2, 2 mM EDTA, 50 mM sodium fluoride and 0.2 mM sodium vanadate), and the concentration is measured by using the Bradford method. 1
Extracted proteins is electrophoresed on 12% polyacrylamide gel, and they are transferred to the nitrocellulose membrane. The membrane blocked with 5% non-fat milk is reacted with the primary antibodies (caspase-3, p53, and Chk1), washed, and reacted with the secondary HRP-conjugated antibody. The intensity of proteins is analyzed by using the ECL kit.

HaCaT cells = experiment: MTT assay, combined treatment with UVB irradiation; assay type: cell-based, human; design: Cell viability: unit not given here; conditions: HaCaT
Experimental: In order to study the synergistic effect in the cytotoxicity by the cotreatment with administration of the compositions of the present invention and with UVB irradiation, the cell viability is analyzed by MTT assay method in HaCaT cells. On a 100-mm dish, 1×10^6 HaCaT cells are seeded and cultured in DMEM containing 10% fetal bovine serum, 100 units/ml penicillin, and 100 μg/ml streptomycin for 48 hours. They are treated with trypsin, and 1-2×10^4 cells per well are seeded on a 96-well plate again by using a serum-free medium, which is removed after about 3 hours. HaCaT cells are washed with PBS three times, and 3.5 ml of PBS per plate is added. It is then irradiated with 200 J/m^2 of UVB. After irradiation, the medium is replaced with a DMEM medium. Then it is treated with the phytosphingosine derivatives of the present invention, and cultured for 24 hours. After 2 mg/ml of the MTT reagent is added, it is cultured for 4 hours. The medium is removed completely, the cells are suspended in DMSO, and O.D. is measured at 540 nm.

Compound: C=C1CC[C@H](O)C/C1=C/C=C1\CCC[C@]2(C)[C@@H]([C@H](C)CCCC(C)C)CC[C@@H]12 [Vit D3, vitamin D3, reference compound]
toxicity ([1]; 1 μM singly): 19%
Cell viability ([1]; 1 μM singly): 81 ± 3

Compound: CCCCCCCCCCCCCCC(O)C(O)C(CO)NC(=O)CCCCC (centres unmarked) [C6-PS, C6-phytosphingosine]
Cell viability ([2]; 1 µM): 84 ± 16.8
Cell viability ([2]; 3 µM): 96 ± 7.2
Cell viability ([2]; 10 µM): 74 ± 10.1
Cell viability ([2]; 30 µM): 87 ± 1.3
Cell viability ([3]; 3 µM): 106 ± 9.7
Cell viability ([3]; 10 µM): 61 ± 8.1
Cell viability ([3]; 30 µM): 57 ± 10.4
Cell viability ([3]; 50 µM): 44 ± 9.6

time to maximum active caspase-3 (caspase-3; after treatment): ≤ 3 h
maximum increase of active caspase-3 (expression of induction) (caspase-3; immunoblot): 2.5 folds
Compound: CCCCCCCCCCCCC/C=C/[C@@H](O)[C@H](CO)NC(C)=O [C2-ceramide, reference compound]
Cell viability ([2]; 1 µM): 97 ± 3.8
Cell viability ([2]; 3 µM): 98 ± 2.5
Cell viability ([2]; 10 µM): 75 ± 1.3
Cell viability ([2]; 30 µM): 33 ± 0.6
cytotoxicity to PBMC [4]: did not show the cytotoxicity
concentration showing a suppressive effect on Th1 cells activation (Th1 cells activation): 50 µM
Cell viability ([5]; 3.5 µM): 90 ± 11.6
Cell viability ([5]; 7 µM): 60 ± 7.7
Cell viability ([5]; 15 µM): 61 ± 8.4
Cell viability ([5]; 30 µM): 34 ± 2.3
suppressive effect on Th1 cells activation against allogenic cells [6]: almost no suppressive effect
Cell viability ([1]; 10 μM combined with Vit D3 (1 μM)): 71 ± 9
Cell viability ([1]; 10 μM combined with calcipotriol (1 μM)): 70 ± 4
Cell viability ([1]; 10 μM singly): 78 ± 2
Cell viability ([3]; 3 µM): 113 ± 19.8
Cell viability ([3]; 10 µM): 97 ± 14.7
Cell viability ([3]; 30 µM): 82 ± 1.4
Cell viability ([3]; 50 µM): 74 ± 12.8
IC50 [7]: ~75 µM

Compound: CLA-phytosphingosine [CLA-PS]
Cell viability ([2]; 1 µM): 66 ± 7.8
Cell viability ([2]; 3 µM): 64 ± 9.9
Cell viability ([2]; 10 µM): 58 ± 0.4
Cell viability ([2]; 30 µM): 55 ± 9.1
Cell viability ([3]; 3 µM): 91 ± 11.0
Cell viability ([3]; 10 µM): 98 ± 12.9
Cell viability ([3]; 30 µM): 60 ± 6.2
Cell viability ([3]; 50 µM): 65 ± 5.5

Compound: CCCCCCCCCCCCCC[C@@H](O)[C@@H](O)[C@@H](N)CO.Cl [PS-HCl, phytosphingosine-HCl]
Cell viability ([2]; human, 24 h, 1 µM): 100 ± 4.1
Cell viability ([2]; human, 24 h, 3 µM): 101 ± 2.2
Cell viability ([2]; human, 24 h, 10 µM): 79 ± 7.0
Cell viability ([2]; human, 24 h, 30 μM): 36 ± 6.8
Cell viability (HaCaT cells; 1 μM + UVB 200 J/m^2, 24 hours): 39 ± 4.5
Cell viability (HaCaT cells; 1 μM, no UVB, 24 hours): 83 ± 7.9
Cell viability (HaCaT cells; 3 μM + UVB 200 J/m^2, 24 hours): 24 ± 2.0
Cell viability (HaCaT cells; 3 μM, no UVB, 24 hours): 78 ± 10.0
Cell viability (HaCaT cells; 5 μM + UVB 200 J/m^2, 24 hours): 25 ± 1.9
Cell viability (HaCaT cells; 5 μM, no UVB, 24 hours): 78 ± 6.7
Cell viability (HaCaT cells; 10 μM + UVB 200 J/m^2, 24 hours): 2 ± 0.5
Cell viability (HaCaT cells; 10 μM, no UVB, 24 hours): 75 ± 8.2
Cell viability ([3]; human, 24 h, 3 µM): 105 ± 5.8
Cell viability ([3]; human, 24 h, 10 µM): 109 ± 8.6
Cell viability ([3]; human, 24 h, 30 μM): 7 ± 1.6
Cell viability ([3]; human, 24 h, 50 μM): 2 ± 0.2
cytotoxicity ([3]; human, 24 h, 50 μM): 95-98%
